Assay results taken from patent publication US4243674A, “9-Hydroxydibenzo[b,d]pyrans and intermediates therefore” (priority 1978, dated 1981).
Where two headings read alike, the source gives them in different places.

Assays:
[1] = system: flinch jump; experiment: Flinch-jump test (FJ); format: in vivo, male albino rats, Charles River (Sprague-Dawley) CD strain; conditions: Rattus norvegicus, rats, 2 hours, read-out: ANALGESIC ACTIVITY ED50, FJ 2 hours
Source text: Tests Using Electrical Nociceptive Stimuli
A modification of the flinch-jump procedure of Tenen, Psychopharmacologia, 12, 278-285 (1968) is used for determining pain thresholds. Male albino rats (175-200 g.) of the Charles River (Sprague-Dawley) CD strain are used. Prior to receiving the drug, the feet of each rat are dipped into a 20% glycerol/saline solution. The animals are then placed in a chamber and presented with a series of 1-second shocks to the feet which are delivered in increasing intensity at 30-second intervals. These intensities are 0.26, 0.39, 0.52, 0.78, 1.05, 1.31, 1.58, 1.86, 2.13, 2.42, 2.72 and 3.04 mA. Each animal's behavior is rated for the presence of (a) flinch, (b) squeak and (c) jump or rapid forward movement at shock onset. Single upward series of shock intensities are presented to each rat just prior to, and at 0.5, 2, 4 and 24 hours subsequent to drug treatment.
(§1) Results of the above tests are recorded as percent maximum possible effect (% MPE). The % MPE of each group is statistically compared to the % MPE of the standard and the predrug control values. The % MPE is calculated as follows: [formula]
(§2) By means of the above procedures, the analgesic activity of several compounds of this invention and of certain prior art compounds are determined. The data are reported in terms of maximum possible effect.
(§3) PBQ=phenylbenzoquinone-induced writhing; TF=tail flick; HP=hot plate; RTC=rat tail clamp; FJ=flinch jump; and TI=tail immersion assays.

[2] = system: hot plate; experiment: Mouse hot plate analgesic testing (HP); format: in vivo, mice; conditions: for ED50: Mus musculus; for ED50 / ANALGESIC ACTIVITY ED50, HP: hot plate, mice
Method: (§4) Tests Using Thermal Nociceptive Stimuli
(a) Mouse Hot Plate Analgesic Testing
The method used is modified after Woolfe and MacDonald, J. Pharmacol. Exp. Ther., 80, 300-307 (1944). A controlled heat stimulus is applied to the feet of mice on a 1/8" thick aluminum plate. A 250 watt reflector infrared heat lamp is placed under the bottom of the aluminum plate. A thermal regulator, connected to thermistors on the plate surface, programs the heat lamp to maintain a constant temperature of 57° C. Each mouse is dropped into a glass cylinder (61/2" diameter) resting on the hot plate, and timing is begun when the animal's feet tough the plate. The mouse is observed at 0.5 and 2 hours after treatment when the test compound for the first "flicking"movements of one or both hind feet, or until 10 seconds elapse without such movements. Morphine has an MPE50 =4-5.6 mg./kg. (s.c.).
as §1, §2, §3

[3] = system: phenylbenzoquinone-induced writhing; experiment: Suppression of phenylbenzoquinone irritant-induced writhing (PBQ); format: in vivo, Carworth Farms CF-1 mice; conditions: mice; for ED50: Mus musculus, read-out: ANALGESIC ACTIVITY ED50, PBQ
Method: Test Using Chemical Nociceptive Stimuli
Suppression of Phenylbenzoquinone Irritant-Induced Writhing
Groups of 5 Carworth Farms CF-1 mice are pretreated subcutaneously or orally with saline, morphine, codeine or the test compound. Twenty minutes (if treated subcutaneously) or fifty minutes (if treated orally) later, each group is treated with intraperitoneal injection of phenylbenzoquinone, an irritant known to produce abdominal contractions. The mice are observed for 5 minutes for the presence or absence of writhing starting 5 minutes after the injection of the irritant. MPE50 's of the drug pretreatments in blocking writhing are ascertained.
as §1, §2, §3

[4] = system: tail flick; experiment: Mouse tail flick analgesic testing (TF); format: in vivo, mice; conditions: for ED50: Mus musculus; for ED50 / ANALGESIC ACTIVITY ED50, TF: tail flick, mice
Source text: as §4
(b) Mouse Tail Flick Analgesic Testing
Tail flick testing in mice is modified after D'Amour and Smith, J. Pharmacol. Exp. Ther., 72, 74-79 (1941), using controlled high intensity heat applied to the tail. Each mouse is placed in a snug-fitting metal cylinder, with the tail protruding through one end. This cylinder is arranged so that the tail lies flat over a concealed heat lamp. At the onset of testing, an aluminum flag over the lamp is drawn back allowing the light beam to pass through the slit and focus onto the end of the tail. A timer is simultaneously activated. The latency of a sudden flick of the tail is ascertained. Untreated mice usually react within 3-4 seconds after exposure to the lamp. The end point for protection is 10 seconds. Each mouse is tested at 0.5 and 2 hours after treatment with morphine and the test compound. Morphine has an MPE50 of 3.2-5.6 mg./kg. (s.c.).
as §1, §2, §3

[5] = system: tail immersion; experiment: Tail immersion procedure (TI); format: in vivo, male albino mice, Charles River CD-1 strain; conditions: Mus musculus, 0.5 h, read-out: ANALGESIC ACTIVITY ED50, TI 1/2 hour
Method: (c) Tail Immersion Procedure
The method is a modification of the receptacle procedure developed by Benbasset, et al., Arch. int. Pharmacodyn., 122, 434 (1959). Male albino mice (19-21 g.) of the Charles River CD-1 strain are weighed and marked for identification. Five animals are normally used in each drug treatment group with each animal serving as its own control. For general screening purposes, new test agents are first administered at a dose of 56 mg./kg. intraperitoneally or subcutaneously, delivered in a volume of 10 ml./kg. Preceding drug treatment and at 0.5 and 2 hours post drug, each animal is placed in the cylinder. Each cylinder is provided with holes to allow for adequate ventilation and is closed by a round nylon plug through which the animal's tail protrudes. The cylinder is held in an upright position and the tail is completely immersed in the constant temperature waterbath (56° C.). The endpoint for each trial is an energetic jerk or twitch of the tail coupled with a motor response. In some cases, the endpoint may be less vigorous post drug. To prevent undue tissue damage, the trial is terminated and the tail removed from the waterbath within 10 seconds. The response latency is recorded in seconds to the nearest 0.5 second. A vehicle control and a standard of known potency are tested concurrently with screening candidates. If the activity of a test agent has not returned to baseline values at the 2-hour testing point, response latencies are determined at 4 and 6 hours. A final measurement is made at 24 hours if activity is still observed at the end of the test day.
as §1, §2, §3

[6] = system: rat tail clamp; experiment: Haffner tail pinch procedure / rat tail clamp (RTC); format: in vivo, male albino rats, Charles River (Sprague-Dawley) CD strain; conditions: for ED50: 1 hour, read-out: ANALGESIC ACTIVITY ED50, RTC 1 hour
Method: Tests Using Pressure Nociceptive Stimuli
Effect on the Haffner Tail Pinch Procedure
A modification of the procedure of Haffner, Experimentelle Prufung Schmerzstillender. Mittel Deutch Med. Wschr., 55, 731-732 (1929) is used to ascertain the effects of the test compound on aggressive attacking responses elicited by a stimulus pinching the tail. Male albino rats (50-60 b.) of the Charles River (Sprague-Dawley) CD strain are used. Prior to drug treatment, and again at 0.5, 1, 2 and 3 hours after treatment, a Johns Hopkins 2.5-inch "bulldog" clamp is clamped onto the root of the rat's tail. The endpoint at each trial is clear attacking and biting behavior directed toward the offending stimulus, with the latency for attack recorded in seconds. The clamp is removed in 30 seconds if attacking has not yet occurred, and the latency of response is recorded as 30 seconds. Morphine is active at 17.8 mg./kg. (i.p.).
as §1, §2, §3

SMILES | ED50 [1] | ED50 [2] | ED50 [3] | ED50 [4] | ED50 ([5]; tail immersion, mice, 1/2 hour) | ED50 [6] | also measured
CC(CCCCc1ccccc1)c1cc(O)c2c(c1)OC(C)(C)[C@@H]1CC[C@@H](O)C[C@@H]21 (relative stereo) [CH(CH3 (CH2)4C6 H5, dl-6aβ,7,8,9,10,10aα-hexahydro-1-hydroxy-6,6-dimethyl-3-(1-methyl-5-phenylpentyl)-6H-dibenzo[b,d]pyran-9β-ol] | 0.42 mg/kg | 3.9 mg/kg | 1.33 mg/kg | 2.8 mg/kg | 3.5 mg/kg | < 3.2 mg/kg | –
CC(CCCc1ccccc1)c1cc(O)c2c(c1)OC(C)(C)[C@@H]1CC[C@@H](O)C[C@@H]21 (relative stereo) [CH(CH3)(CH2)3C6 H5, dl-6aβ,7,8,9,10,10aα-Hexahydro-1-hydroxy-6,6-dimethyl-3-(1-methyl-4-phenylbutyl)-6H-dibenzo[b,d]pyran-9β-ol] | 0.11 mg/kg | 0.75 mg/kg | 0.062 mg/kg | 0.32 mg/kg | 0.3 mg/kg | 1.8 mg/kg | –
CC(CCOc1ccccc1)c1cc(O)c2c(c1)OC(C)(C)[C@@H]1CC[C@@H](O)C[C@@H]21 (relative stereo) [CH(CH3)(CH2)2OC6 H5, dl-6aβ,7,8,9,10,10aα-hexahydro-1-hydroxy-6,6-dimethyl-3-(1-methyl-3-phenoxypropyl)-6H-dibenzo[b,d]pyran-9β-ol] | – | – | 0.1 to 1 mg/kg | – | – | – | –
CC(CCCOc1ccccc1)c1cc(O)c2c(c1)OC(C)(C)[C@@H]1CC[C@@H](O)C[C@@H]21 (relative stereo) [CH(CH3)(CH2)3OC6 H5, dl-6aβ,7,8,9,10,10aα-hexahydro-1-hydroxy-6,6-dimethyl-3-(1-methyl-4-phenoxybutyl)-6H-dibenzo[b,d]pyran-9β-ol] | – | ~10 mg/kg | 0.39 mg/kg | 1.2 mg/kg | – | – | –
CCCCCC(C)C(C)c1cc(O)c2c(c1)OC(C)(C)[C@@H]1CC[C@@H](O)C[C@@H]21 (relative stereo) [CH(CH3)CH(CH3)C5 H11, reference compound] | 0.11 mg/kg | 1.1 mg/kg | 0.1 mg/kg | 0.35 mg/kg | 0.38 mg/kg | 0.44 mg/kg | –
CC(CCc1ccccc1)Oc1cc(O)c2c(c1)OC(C)(C)[C@@H]1CC[C@@H](O)C[C@@H]21 (relative stereo) [OCH(CH3)(CH2)2C6 H5, dl-6aβ,7,8,9,10,10aα-hexahydro-1-hydroxy-6,6-dimethyl-3-(1-methyl-3-phenylpropoxy)-6H-dibenzo[b,d]pyran-9β-ol] | – | ~3.2 mg/kg | 0.21 mg/kg | 1.3 mg/kg | – | – | –
CCCCCc1cc(O)c2c(c1)OC(C)(C)[C@@H]1CC[C@@H](O)C[C@@H]21 (relative stereo) [C5 H11, reference compound] | 8 mg/kg | ≥ 17.8 mg/kg | 0.68 mg/kg | 3.2 mg/kg | 13 mg/kg | 58 mg/kg | –
CC(CCCc1ccncc1)c1cc(O)c2c(c1)OC(C)(C)[C@@H]1CC[C@@H](O)C[C@@H]21 (relative stereo) [CH2 (CH3)(CH2)34-pyridyl, dl-6aβ,7,8,9,10,10aα-hexahydro-1-hydroxy-6,6-dimethyl-3-[1-methyl-4-(4-pyridyl)butyl]-6H-dibenzo[b,d]pyran-9β-ol] | – | – | 0.17 mg/kg | – | – | – | –
CN1CC[C@]23c4c5ccc(O)c4O[C@H]2[C@@H](O)C=C[C@H]3[C@H]1C5 [morphine, reference compound] | – | – | – | – | – | – | ANALGESIC ACTIVITY ED50, HP [2]: 4.7 mg/kg; MPE50 hot plate ([2]; s.c., 57° C. plate): 4 to 5.6 mg/kg; ANALGESIC ACTIVITY ED50, PBQ [3]: 0.8 mg/kg; MPE50 tail flick ([4]; s.c.): 3.2 to 5.6 mg/kg; ANALGESIC ACTIVITY ED50, TF [4]: 3.8 mg/kg; ED50 [5]: 4 mg/kg; ANALGESIC ACTIVITY ED50, RTC (1/2 hr.) ([6]; 1/2 hr. (morphine only), 30 min): 2.9 mg/kg
CCCCCC(C)Oc1cc(O)c2c(c1)OC(C)(C)[C@@H]1CC[C@@H](O)C[C@@H]21 (relative stereo) [OCH(CH3)C5 H11, dl-6aβ,7,8,9,10,10aα-Hexahydro-1-Hydroxy-6,6-Dimethyl-3-(2-Heptyloxy)-6H-Dibenzo[b,d]pyran-9β-ol] | 0.3 mg/kg | 1.2 mg/kg | 0.16 mg/kg | 0.46 mg/kg | 0.7 mg/kg | 0.34 mg/kg | –
CC1(C)Oc2cc(OC3CCCCC3)cc(O)c2[C@@H]2C[C@H](O)CC[C@H]21 (relative stereo) [OC6 H11, dl-6aβ,7,8,9,10,10aα-1-hydroxy-6,6-dimethyl-3-cyclohexyloxy-6H-dibenzo[b,d]pyran-9β-ol] | – | > 10 mg/kg | 5.3 mg/kg | > 10 mg/kg | – | – | –
CC(CCc1ccccc1)c1cc(O)c2c(c1)OC(C)(C)[C@@H]1CC[C@@H](O)C[C@@H]21 (relative stereo) [CH(CH3)(CH2)2C6 H5, dl-6aβ,7,8,9,10,10aα-hexahydro-1-hydroxy-6,6-dimethyl-3-(1-methyl-3-phenylpropyl)-6H-dibenzo[b,d]pyran-9β-ol] | – | > 10 mg/kg | 5 mg/kg | > 10 mg/kg | – | – | –
CC(CCCc1ccccc1)c1cc(O)c2c(c1)OC(C)C1CCC(O)CC21 (racemic) [CH(CH3)(CH2)3C6 H5^(a), dl-6aα-7,8,9,10,10a-hexahydro-1-hydroxy-6α-methyl-3-(1-methyl-4-phenylbutyl)-6H-dibenzo[b,d]pyran-9β-ol] | – | – | – | – | – | – | ANALGESIC ACTIVITY ED50, HP [2]: 5.6 mg/kg; ANALGESIC ACTIVITY ED50, PBQ [3]: 0.94 mg/kg; ANALGESIC ACTIVITY ED50, TF [4]: 1.6 mg/kg
